Assay results taken from article PMC3752336 (Neurochemical research, 2008).

Molecular target: human M3 muscarinic acetylcholine receptor (hM3) (Homo sapiens, UniProt P20309)
Experiment: inhibition of [3H]NMS binding, intact CHO cells
Type: cell-based

Chain of human M3 muscarinic acetylcholine receptor (hM3) (P20309 whole entry): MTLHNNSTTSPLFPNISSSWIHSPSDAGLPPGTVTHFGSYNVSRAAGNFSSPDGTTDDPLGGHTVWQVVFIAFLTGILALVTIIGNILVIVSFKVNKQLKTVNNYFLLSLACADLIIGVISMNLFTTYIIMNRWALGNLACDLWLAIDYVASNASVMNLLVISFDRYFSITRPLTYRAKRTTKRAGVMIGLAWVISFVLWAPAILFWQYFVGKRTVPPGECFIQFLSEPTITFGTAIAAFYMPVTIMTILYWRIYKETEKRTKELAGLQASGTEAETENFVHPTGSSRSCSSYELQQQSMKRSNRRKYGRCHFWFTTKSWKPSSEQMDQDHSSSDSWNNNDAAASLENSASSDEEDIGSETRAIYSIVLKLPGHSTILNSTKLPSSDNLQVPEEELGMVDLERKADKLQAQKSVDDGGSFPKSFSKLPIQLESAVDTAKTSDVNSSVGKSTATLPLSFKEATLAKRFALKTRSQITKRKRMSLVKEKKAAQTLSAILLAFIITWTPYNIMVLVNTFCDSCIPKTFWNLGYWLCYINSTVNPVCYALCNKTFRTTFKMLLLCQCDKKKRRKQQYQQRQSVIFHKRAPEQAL

## CCCCCCOc1nsnc1C1=CCCN(C)C1 [Xanomeline]
  IC50: 0.0794 µM
